This is an account of results in patent US9198957B2, “Treatment and prevention of bacterial vaginosis and Gardnerella vaginalis infections” (The Trustees of Columbia University in the City of New York, priority 2011, dated 2015).

One data set relates to strain 49145. In words: MIC by E-test, strain 49145. The data set is classed as cell-based, Gardnerella vaginalis. To be noted: Mueller-Hinton agar with 5% sheep's blood, CLSI, repeated twice.
The next data set concerns strain ARG3. In words: MIC by E-test, strain ARG3. The class given is cell-based, Gardnerella vaginalis. To be noted: Mueller-Hinton agar with 5% sheep's blood, CLSI, repeated twice.
For data set [1] the following is noted: reference (77); cited from earlier work.
For data set [2], the system named is BV and G. vaginalis infections. The conditions noted are these: cited from earlier work.
The next data set deals with Atopobium vaginae. To be noted: reference (80); cited from earlier work.
Data set [3] relates to Gardnerella strain 49145 biofilm. In words: Inhibition of newly forming biofilm (safranin stain, A462), strain 49145. The class given is cell-based, Gardnerella vaginalis. The conditions noted are these: for reduction in biofilm formation (% biofilm density): FIG. 6. The protocol: (§1) Biofilms of multiple Gardnerella strains [G. Vaginalis is the only species in the genus Gardnerella.] were grown, separately, in vitro in 96-well plates in BHI-supplemented media. Bovine pancreas DNase was added in varying concentrations to biofilm cultures at 0 hours (newly forming biofilms) and 24 hours (established biofilms.) The biofilms were washed, the supernatant was removed, and the biofilms were stained with safranin and solubilized in acetic acid. Biofilm absorbance at A462 nm was measured with a spectrophotometer, which method quantifies the amount of safranin stain taken up by the biofilm. DNase-treated and untreated biofilms were also grown in chamber slides and DAPI staining was performed for fluorescence microscopy.
(§2) Biofilms were grown in the presence of varying concentrations of antibiotic and DNase administered at t=0 hours to test the effect of the agents on biofilm formation. To test the effects on the degradation of established biofilms, the agents were administered at t=24 hours.
All cultures and biofilms were grown in ‘biofilm media’ (BHI media+0.3% starch, 0.3% glucose, 0.5 mcg/mL amphotericin B) at 37° C. and 5% CO2. Liquid cultures of strains 49145 or ARG3 were grown overnight to a standardized OD600 of 0.6 and diluted 1:10 prior to aliquoting for biofilms. Cultures were aliquoted into 96-well plates as follows:
(§3) 180 μL of bacteria and 20 μL of DNase at varying concentrations (1:10 dilutions of 1 mg/mL to final concentrations in the wells as labeled in the figures) or PBS as a control (total volume always 200 μL) were added together at t=0 hours and incubated for 24 hours. They were then washed, stained with safranin and solubilized with ascetic acid, with measurement of absorbance at 462 nm to quantify density of stained material.
160 μL of culture, 20 µL of antibiotic at varying concentrations (1:10 and 2-fold dilutions to final concentrations in wells as labeled in the figures), and 20 μL of DNase at varying concentrations (1:10 dilutions as above) with 20-40 μL of PBS used when necessary for controls (wells without antibiotic, DNase, or both) were added to wells at t=0 hours and incubated for 24 hours as above. Biofilms were quantified as above.

The test system of data set [4] is Gardnerella strain ARG3 biofilm. The experiment in a line: Inhibition of newly forming biofilm (safranin stain), strain ARG3. The class given is cell-based, Gardnerella vaginalis. To be noted: DNase 10 μg/ml and 100 μg/ml, time=0 hours; FIG. 2. On the procedure:
as §1
Biofilms were grown in the presence of varying concentrations of antibiotic and DNase administered at t=0 hours to test the effect of the agents on biofilm formation. […]
180 μL of bacteria and 20 μL of DNase at varying concentrations (1:10 dilutions of 1 mg/mL to final concentrations in the wells as labeled in the figures) or PBS as a control (total volume always 200 μL) were added together at t=0 hours and incubated for 24 hours. They were then washed, stained with safranin and solubilized with ascetic acid, with measurement of absorbance at 462 nm to quantify density of stained material. […]

In data set [5] the test system is established Gardnerella strain 49145 biofilms. The experiment in a line: Breakdown of established (24 h) biofilm, strain 49145. The class given is cell-based, Gardnerella vaginalis. The conditions noted are these: DNase administered at t=24 hours; FIG. 3. The protocol:
as §1, §2
(§4) All cultures and biofilms were grown in ‘biofilm media’ (BHI media+0.3% starch, 0.3% glucose, 0.5 mcg/mL amphotericin B) at 37° C. and 5% CO2. Liquid cultures of strains 49145 or ARG3 were grown overnight to a standardized OD600 of 0.6 and diluted 1:10 prior to aliquoting for biofilms. […]
(§5) For quantification as above, antibiotic concentrations were chosen based on the MIC (⅛-4× MIC).

The subject of data set [6] is established Gardnerella strain ARG3 biofilms. In words: Breakdown of established (24 h) biofilm, strain ARG3. The data set is classed as cell-based, Gardnerella vaginalis. To be noted: DNase administered at t=24 hours; FIG. 4. On the procedure: as §1, §2, §4, §5
Data set [7] has as its system group B Streptococcus biofilm. In words: Inhibition of group B Streptococcus biofilm formation (A462). To be noted: DNase 100 μg/ml, t=0 hours; FIG. 17. The class given is cell-based. The protocol: as §1, §3
The results depicted in FIG. 17 show the dose-response inhibition of group B Streptococcus biofilm formation by DNase that was administered at t=0 hours as assessed by measuring the absorbance of light at 462 nm (A462).

For data set [8], the system named is ATCC Gardnerella strain 49145 biofilms. The experiment in a line: Liberation of bacteria from biofilm into supernatant / bacterial killing (colony counts). The class given is cell-based, Gardnerella vaginalis. On the procedure:
Further experiments were conducted to assess whether there is an improved effect on biofilm formation and breakdown by the combined administration of DNase and antibiotics against Gardnerella. The y axis plots the % of biofilm absorbance A462 for each condition. […] The minimum inhibitory concentration (MIC) for the antibiotics was measured by E-testing the relevant strains. Colony counts were performed on both the supernatant and the biofilm components of the culture, and a one-way ANOVA with Bonferroni post-tests were performed using Prism (Graphpad) where DNase was administered at time=24 hours.

In another data set the test system is G. Vaginalis ARG37. In words: Murine model of vaginal colonization. To be noted: co-inoculation with DNase, mice, strain ARG37; FIG. 16. The data set is classed as in vivo. From the text:
The same strategy works in the complex environment of the lower genital tract in murine models of vaginal colonization. Models for vaginal colonization of mice with G. Vaginalis and group B Streptococcus have been developed. […] FIG. 16. These models will important in prophylactic use in at-risk populations including, but not limited to, pregnant women, those individuals infected with sexually transmitted diseases including HIV, and those individuals with recurrent BV.

The next data set deals with Gardnerella biofilms. In words: Fluorescence microscopy of DNase-treated biofilms. The class given is cell-based, Gardnerella vaginalis. To be noted: DNase-treated vs untreated biofilms.
Data set [9] deals with biofilms made by G. vaginalis. To be noted: Patterson et al. 2007; cited from earlier work.

Some results are limits rather than exact numbers.

In general, half-life refers to the time needed for the level to fall by half in the phase considered.

As for `Cc1ncc([N+](=O)[O-])n1CCO` [metronidazole], the “Minimum Inhibitory Concentration (MIC)” value with strain 49145 and with strain ARG3 was 4 throughout. In addition, the half-life in [1] is 6 to 7 h. The “cure rates (by Amsel criteria)” value in data set [2] (at four weeks, oral regimens for one week) is “approximately 80%”. In [2] (multiple divided-dose oral regimens for one week), the “early rates of clinical cure” value was greater than 90%.

penicillin: the “Etest susceptibility concentration (range)” value with Atopobium vaginae is 0.008 to 0.25 µg/mL.

Regarding `CC(=O)NC[C@H]1CN(c2ccc(N3CCOCC3)c(F)c2)C(=O)O1` [linezolid], in the data set with Atopobium vaginae, the “Etest susceptibility concentration (range)” value is 0.016 to 0.125 µg/mL.

On to `CC[C@H]1OC(=O)[C@H](C)[C@@H](O[C@H]2C[C@@](C)(OC)[C@@H](O)[C@H](C)O2)[C@H](C)[C@@H](O[C@@H]2O[C@H](C)C[C@H](N(C)C)[C@H]2O)[C@](C)(O)C[C@@H](C)CN(C)[C@H](C)[C@@H](O)[C@]1(C)O` [azithromycin], for which the “Etest susceptibility concentration (range)” value in the data set with Atopobium vaginae was less than 0.016 to 0.32 µg/mL.

As for DNase, the “extent of biofilm formation (A462)” value is “dramatic reduction” in data set [3] (DNase 10 μg/ml and 100 μg/ml, administered at time=0 hours, FIG. 1); “dramatic reduction” in data set [7]. The “reduction in biofilm formation (% biofilm density)” value amounted to 30% in data set [3] (DNase alone 1 μg/mL, t=0 hours) and 75% in [3] (DNase alone 100 μg/mL, t=0 hours). Moreover, the “reduction in biofilm formation (A462)” value in [3] (DNase alone 1 μg/mL, t=0 hours, FIG. 8 (C)) is 30%. The “extent of biofilm formation (% biofilm density)” value in data set [4] was “dramatic reduction”. For the same compound, the “breakdown of established biofilms” value in data set [5] and in [6] was “dose-dependent breakdown” in each case. Besides, in data set [8] (DNase alone), the “bacterial killing in biofilm cultures” value is on record as “does not kill the bacteria”. The “release of biofilm-embedded bacteria” value in data set [8] (DNase, FIGS. 13-15) is “released into the supernatant”. In the data set with G. Vaginalis ARG37, the “establishment of vaginal colonization” value is on record as “inhibited the establishment of colonization”. For the same compound, in the data set on Gardnerella biofilms, the “biofilm matrix and overall density by fluorescence microscopy” value is “decrease in the biofilm matrix and in overall density”. Also, the “reduction in biofilm formation or breakdown” value in [9] is “no reduction in biofilm formation or breakdown”.

With `O=C(O)c1cn(C2CC2)c2cc(N3CCNCC3)c(F)cc2c1=O` [ciprofloxacin], the “Etest susceptibility concentration (range)” value in the data set on Atopobium vaginae was 0.023 to 0.25 µg/mL.

Consider `CC1(C)S[C@@H]2[C@H](NC(=O)[C@H](N)c3ccccc3)C(=O)N2[C@H]1C(=O)O` [ampicillin], for which the “Etest susceptibility concentration (range)” value with Atopobium vaginae was less than 0.016 to 0.94 µg/mL.

With `CCS(=O)(=O)CCn1c([N+](=O)[O-])cnc1C` [Tinidazole], in data set [1], the half-life is 12 to 14 h.
